Data: patent US7207289B2, “Method of feeding the cattle with feed additives that increases beef production and reduces liver abscess” (Intervet International B.V., priority 2004, dated 2007)

Assays:
cattle = conditions: cited from earlier work
steers = experiment: Study V-0238-0017: effects of Rumensin plus Tylan and zilpaterol on liver abscess rates in feedlot steers; assay type: in vivo, cattle
Excerpt: In study number V-0238-0017 a total of 3,945 steers were used to test the effects of Rumensin® plus Tylan® and zilpaterol on feedlot performance, liver abscess rates, and carcass traits. The inventors discovered that Tylan® and Rumensin® could be removed from the diet for the last 30 days to feed zilpaterol without negatively affecting liver abscess rates. In fact it was discovered that zilpaterol decreased the incidence of liver abscesses.
Study Number V-0238-0017, Effects of Zilpaterol on Liver Abscesses

steers and heifers = experiment: Zilpaterol efficacy studies V-0238-0019, V-0238-0020, V-0238-0021 (pooled analysis): liver abscesses and feed intake; assay type: in vivo, cattle
Excerpt: All of these cattle had been fed Tylan® up to the last 20 to 40 days on feed at which time Tylan® was removed and cattle were either fed a control diet without Tylan®, Rumensin® or zilpaterol or cattle were fed a treatment diet containing just zilpaterol. While the mechanism by which zilpaterol decreases liver abscess is not fully clear at this time, it seems that zilpaterol functions to decrease liver abscesses by decreasing feed intake. Because the liver abscesses discovered at slaughter are formed during the last ˜60 days or less on feed and this is the same time zilpaterol is fed, a decrease in feed intake would result in a decrease in acid production and possibly a decrease in rumen wall lesions and rumenitis.
Summary of Zilpaterol Efficacy Studies (Pooled Analysis), Study Numbers, V-0238-0019, V-0238-0020, and V-0238-0021 on Liver Abscesses and Feed Intake

| SMILES | feed intake and dressing percentage (cattle; Laudert and Vogel (1994)) | gain and feed to gain ratio (cattle; Laudert and Vogel (1994)) | average daily gain (cattle; Potter et al. (1985)) | feed intake (cattle; Potter et al. (1985)) | liver abscesses being reduced (cattle; cattle treated with Tylan, typical) | Live Abscess, % (steers; 166-day study, 3,945 steers, 10 pens per treatment, zilpaterol fed for the last 30 days on feed) | incidence of liver abscesses (effect in words) (steers; study V-0238-0017, steers) | Average Daily Dry Matter Intake, lbs. (steers and heifers; pooled analysis of three studies, zilpaterol for the last 20 or 40 days) | % of Livers Condemned for Abscesses (steers and heifers; pooled, 957 animals, Tylan removed for the last 20 to 40 days, diet containing just zilpaterol) | liver abscesses (effect in words) (steers and heifers; steers and heifers supplemented for 20 or 40 days) |
| --- | --- | --- | --- | --- | --- | --- | --- | --- | --- | --- |
| CC[C@H]1OC(=O)C[C@@H](O)[C@H](C)[C@@H](O[C@@H]2O[C@H](C)[C@@H](O[C@H]3C[C@@](C)(O)[C@@H](O)[C@H](C)O3)[C@H](N(C)C)[C@H]2O)[C@@H](CC=O)C[C@@H](C)C(=O)/C=C/C(C)=C/[C@@H]1CO[C@@H]1O[C@H](C)[C@@H](O)[C@@H](OC)[C@H]1OC [Tylan, Tylosin] | only minor effects | improved | improved | no effect | 63 to 71% | – | – | – | – | – |
| CC(C)NC1CCn2c(=O)[nH]c3cccc(c32)C1O (stereo not shown) [Zilpaterol] | – | – | – | – | – | 13.29% | decreased | 18.69 lbs. | 19.1% | significantly decreased |
